pIC50: −log10 of the molar value. Calls of active or inactive are those of the source. The rule behind the calls is not given here.
The compounds below were run on 697B cells, BCR-induced NF-kB luciferase reporter luminescence (assay: inhibitors of BCR-induced NF-kB activation, dose response, 697B cells, luciferase luminescence (AID 489023)).

| SMILES | IC50 | pIC50 |
| --- | --- | --- |
| Cn1c(=O)cc(OCCCC(=O)N2CCCCC2)c2ccccc21 | > 80 µM (inactive) | – |
| COc1ccc(C2=NCc3nnc(C)n3-c3ccc(Cl)cc32)cc1Cl | 43.6 µM (inactive) | – |
| Cc1nc2cc(-c3cccc(F)c3)nn2c(C)c1CCC(=O)NC(C)CCc1ccco1 (centres undefined) | – | 4.86 |
| CCc1sc(C(=O)Nc2cccc(-n3cnnn3)c2)cc1C | > 80 µM (inactive) | – |
| O=C(c1cc2nc(-c3ccccc3)cc(-c3ccccc3)n2n1)N1CCN(C(=O)c2ccco2)CC1 | – | 5.06 |
| COC(=O)CSc1nnc(-c2sc3ccccc3c2Cl)o1 | – | 4.99 |
| O=S(=O)(NCc1ccncc1)c1ccc(Br)s1 | > 80 µM (inactive) | – |
| Cc1cc(C)cc(OCc2nnc(SCC(=O)c3ccccc3)o2)c1 | > 80 µM (inactive) | – |
| C=CCOC(=O)COc1cc(C)cc2oc(=O)c3c(c12)CCC3 | > 80 µM (inactive) | – |
| Cc1cc(C)nc(Sc2ccc([N+](=O)[O-])cc2[N+](=O)[O-])n1 | – | 5.71 |
| Cc1c(CCC(=O)N2CCC(C(=O)O)CC2)c(=O)oc2cc3oc4c(c3cc12)CCCC4 | – | 4.85 |
| CC(=C\c1ccccc1)/C=C1/SC(=O)N(CCCC(=O)Nc2ccc(C(=O)O)cc2)C1=O | – | 6.19 |
| COc1cc(C(=O)Nc2cc(C)c(OCC(=O)N3CCOCC3)c(C)c2)cc(OC)c1OC | > 80 µM (inactive) | – |
| Cc1c(CCC(=O)O)c(=O)oc2cc3oc4c(c3cc12)CCCC4 | – | 6.57 |
| COc1ccccc1/C=C1\SC(=S)N(CCC(=O)Nc2cc(C)on2)C1=O | 36.8 µM (inactive) | – |
| CC(C)CN(C(=O)COC(=O)C12CC3CC(CC(C3)C1)C2)c1c(N)n(Cc2ccccc2)c(=O)[nH]c1=O | – | 5.24 |
| O=C(CCCN1C(=O)/C(=C/c2ccccc2Cl)SC1=S)NNC(=O)c1ccccc1Cl | – | 5.37 |
| CCN1C(=O)c2cccc3c(S(=O)(=O)NCC4CCCO4)ccc1c23 (centres undefined) | 69.7 µM (inactive) | – |
| CCCNC(=O)c1ccc(N2CCC3(CC2)CC(c2cccc(Br)c2)=NO3)c(NC(=O)c2ccc(Cl)c([N+](=O)[O-])c2)c1 | > 80 µM (inactive) | – |
| NC(=O)C1CCN(C(=O)COc2ccc3ccccc3c2Br)CC1 | 39.4 µM (inactive) | – |
| CC1CN(S(=O)(=O)c2ccc(C(=O)Nc3nc(-c4cc5ccccc5o4)cs3)cc2)CC(C)O1 (centres undefined) | > 80 µM (inactive) | – |
| C#CCN(Cc1ccccc1)S(=O)(=O)C=C | 21.3 µM (inactive) | – |
| COc1ccc(/C=C2\SC(=S)N(CCCC(=O)Nc3ccc(O)cc3)C2=O)cc1 | – | 5.90 |
| CCN1CCN(C(=O)CSc2cc(=O)n(CC)c3ccccc23)CC1 | > 80 µM (inactive) | – |
| Cn1c(=O)n(C)c2cc(NS(=O)(=O)c3ccccc3)ccc21 | 38.3 µM (inactive) | – |

| SMILES | IC50 | pIC50 |
| --- | --- | --- |
| OCCN1CCN(C(=S)c2ccc(-c3ccccc3)cc2)CC1 | – | 5.24 |
| CCCc1nc2c(C)cc(-c3nc4ccccc4n3C)cc2n1Cc1ccc(-c2ccccc2C(=O)O)cc1 | 72.5 µM (inactive) | – |
| Cc1nc2cc(-c3ccccc3)nn2c(C)c1CCC(=O)NCc1ccco1 | > 80 µM (inactive) | – |
| CC(=O)c1cn(CCOc2cc(C)ccc2C)c2ccccc12 | > 80 µM (inactive) | – |
| CCOC(=O)N1CCN(c2ncnc3c2[nH]c2ccc(OC)cc23)CC1 | 60 µM (inactive) | – |
| CCN1C(=O)c2cccc3c(NC(=O)c4cccc(N5C(=O)CCC5=O)c4)ccc1c23 | > 80 µM (inactive) | – |
| Cn1c(=O)c2c(SCC(=O)Nc3ccccc3F)nc(-c3ccccc3F)nc2n(C)c1=O | 21.8 µM (inactive) | – |
| CCn1c(=O)cc(SCC(=O)N2CCC(C)CC2)c2ccccc21 | > 80 µM (inactive) | – |
| CCCCOc1ccc(NC(=O)C(=O)NCCCn2ccnc2)cc1 | – | 4.96 |
| C=CCOc1ccc(NC(=O)C(=O)NCCCn2ccnc2)cc1 | > 80 µM (inactive) | – |
| CCOc1ccc(-c2c[n+]3c(n2-c2ccccc2)CCCCC3)cc1 | > 80 µM (inactive) | – |
| COCCNC(=O)CSCc1nc(-c2ccc(SC)cc2)oc1C | – | 5.34 |
| COc1ccc(-c2ccc(OC)c([C@H]3[C@H]4C=CC[C@@H](C)[C@@H]4C(=O)N3Cc3ccccc3)c2)cc1C | > 80 µM (inactive) | – |
| CCN(CC)c1ccc(/C=C2/C(=O)ON=C2C)cc1 | 21.2 µM (inactive) | – |
| COc1cc(OC)cc(-c2cc3nc(C)c(CCC(=O)Nc4nc(C)cs4)c(C)n3n2)c1 | – | 4.88 |
| COc1ccc(C(=O)Nc2ccccc2C(=O)NCc2ccco2)cc1OC | > 80 µM (inactive) | – |
| Cc1cc(OC(=O)c2ccccc2Cl)cc(=O)n1C | > 80 µM (inactive) | – |
| COc1ccc(-c2noc(CCCC(=O)Nc3ccc(C(N)=O)cc3)n2)cc1 | – | 5.06 |
| COc1ccc(-c2noc(CCCC(=O)O)n2)cc1 | – | 5.67 |
| CCOc1ccc(-c2noc(CCC(=O)O)n2)cc1 | – | 5.39 |
| Cc1nc2cc(-c3ccc(Cl)cc3)nn2c(C)c1CCC(=O)NC(C)c1ccc2c(c1)OCCO2 (centres undefined) | 23.7 µM (inactive) | – |
| CCc1cccc(NC(=O)c2ccc(CNc3c(N4CCCC4)c(=O)c3=O)cc2)c1 | > 80 µM (inactive) | – |
| O=C(CN1C(=O)c2ccccc2S1(=O)=O)c1ccc(Cl)cc1Cl | – | 6.36 |
| CCOc1ccc(NC(=O)CCCc2cc(-c3ccc(OCC)cc3)on2)cc1 | – | 5.71 |

Source: PubChem BioAssay AID489023 (Sanford-Burnham Center for Chemical Genomics, 2010)
